Entries after “also recorded” stand apart in the source; their conditions may differ. Read-outs that look alike come from different tables or passages of the source.
What was measured:
lipid metabolism = test: Effects of diphosphonates on lipid metabolism in normal rats (serum lipids, α/β cholesterol); format: in vivo, male Wistar rats; settings: for Serum Chol. α/β (% control values) / Serum Free Fatty Acids (% control values) / Serum Phospholipids (% control values) / Serum Triglycerides (% control values) / change in vivo at 200 mg/kg/day: normal rats (N), 200 mg/kg/day p.o.; for increased HDL lipids, especially HDL cholesterol: normal rats; for change in vivo at 200 mg/kg/day: Rattus norvegicus, po
Procedure: Effects of diphosphonates of formula (I) on lipid metabolism in normal rats Groups of 4 to 5 normal male Wistar rats, weighing about 200 g were treated with diphosphonates (200 mg/kg/day) p.o. for 4 to 21 days. Water soluble compounds were given in solution in 24 mM bicarbonate buffer. Lipid soluble compounds were given in corn oil. The rats were weighed, sacrificed by decapitation (under light ether anesthesia) after overnight fasting. Blood was collected and serum used for analysis. The following blood parameters reflecting changes in lipid metabolism are reported: […]
free fatty acids measured according to W. G. Duncombe (Clin. Acta 9, 122, 1964) triglycerides enzymatic method (Boehringer Mannheim Kit 126 012) phospholipids: molybdate/vanadate reaction (Boehringer Mannheim Kit 124 974) β-lipoprotein cholesterol was measured after heparin, CaCl2 precipitation according to M. Burstein et al. (La Presse Medicale 43, 974, 1958) and to D. Watson (Clin. Chim. Acta 5, 637, 1960).
(§1) In above Table IV, results are given as % control values. Except for serum calcium, values which differ from control values by less than 15% are considered as non significant (NS).
Serum free fatty acids, triglycerides and phospholipids were measured in normal rats (N) and rats previously fed a cholesterol diet for 10 days (C.F.) Serum α/β cholesterol, total lipids and cholesterol of liver and aorta were determined in normal rats (N) and rats which had previously been fed on high cholesterol diet (C.F.)

tissue cholesterol = test: Effects in cholesterol fed rats (serum, liver and aorta lipids); format: in vivo; settings: for liver total lipids and/or liver cholesterol: cholesterol fed rats; for change in vivo at 200 mg/kg/day: Rattus norvegicus
Procedure: Effects of diphosphonates of formula (I) in cholesterol fed rats
In order to increase tissue cholesterol, especially liver, rats were fed a high fat-high cholesterol diet for 10 days to 3 months, with the following diet composition: casein 20%, butter 37%, cellulose 9.1%, dextrose 18,9%, cholesterol 4.5%, sodium cholate 1.8%, minerals 7.3%, vitamins 1%, choline 0.4%.
The rats were then fed normal food and were treated for 10 days to 3 months with different compounds (200 mg/kg/day). Serum parameters described above were measured. Liver and aorta lipids were extracted according to J. Folch et al (J. Biochem. 226, 497, 1957). Total lipids were determined by the sulfophosphovanillic reaction (see N. Zolner and K. Kirsch, Z. Ges. exp. Med. 135, 545, 1962) and cholesterol by the Liebermann-Burchard reaction or appropriate enzymatic reaction.
as §1
Serum free fatty acids, triglycerides and phospholipids were measured in normal rats (N) and rats previously fed a cholesterol diet for 10 days (C.F.)
Serum α/β cholesterol, total lipids and cholesterol of liver and aorta were determined in normal rats (N) and rats which had previously been fed on high cholesterol diet (C.F.)

[1] = cholesterol fed rats (C.F), 200 mg/kg/day
[2] = read-out: Serum Chol. α/β (% control values)
[3] = read-out: Serum Free Fatty Acids (% control values)
[4] = read-out: Serum Phospholipids (% control values)
[5] = read-out: Serum Triglycerides (% control values)
[6] = cholesterol fed rats (C.F), 200 mg/kg/day, read-out: Liver Chol. (% control values)
[7] = cholesterol fed rats (C.F), 200 mg/kg/day, read-out: Liver Total Lipids (% control values)

SMILES: COP(=O)(OC)C(O)(C(C)(C)C)P(=O)(OC)OC [Compound 1]
- Serum Chol. α/β (% control values) (lipid metabolism): NS (Except for serum calcium, values which differ from control values by less than 15% are considered as non significant (NS))
- Serum Free Fatty Acids (% control values) (lipid metabolism): NS (Except for serum calcium, values which differ from control values by less than 15% are considered as non significant (NS))
- Serum Phospholipids (% control values) (lipid metabolism): -43%
- Serum Triglycerides (% control values) (lipid metabolism): +24%
- property to change lipid metabolism / increase HDL (lipid metabolism; rats): do not have these properties

SMILES: COP(=O)(OC)C(O)(c1ccccc1)P(=O)(OC)OC [Compound 2]
- increased HDL lipids, especially HDL cholesterol (lipid metabolism): observed most dramatically
- Serum Free Fatty Acids (% control values) (lipid metabolism): NS (Except for serum calcium, values which differ from control values by less than 15% are considered as non significant (NS))
- Serum Phospholipids (% control values) (lipid metabolism): +25%
- Serum Triglycerides (% control values) (lipid metabolism): -21%
- decreases in serum triglycerides (lipid metabolism; rats): Significant decreases
- increase in serum phospholipid (lipid metabolism; rats): found to increase
- α-cholesterol/β-cholesterol ratio / lipoprotein cholesterol (lipid metabolism; rats): highly significant activity
- liver total lipids and/or liver cholesterol (tissue cholesterol): decreased significantly
- Aorta Chol. (% control values) (tissue cholesterol; [1]): NS (Except for serum calcium, values which differ from control values by less than 15% are considered as non significant (NS))
- Aorta Total Lipids (% control values) (tissue cholesterol; [1]): -30%
- Liver Chol. (% control values) (tissue cholesterol; [1]): -50%
- Liver Total Lipids (% control values) (tissue cholesterol; [1]): -24%
- Serum Chol. α/β (% control values) (tissue cholesterol; [1]): +88%
- Serum Free Fatty Acids (% control values) (tissue cholesterol; [1]): -56%
- Serum Phospholipids (% control values) (tissue cholesterol; [1]): NS (Except for serum calcium, values which differ from control values by less than 15% are considered as non significant (NS))
- Serum Triglycerides (% control values) (tissue cholesterol; [1]): -15%

SMILES: COP(=O)(OC)C(O)(c1ccc(C)cc1)P(=O)(OC)OC [Compound 3]
- change in vivo at 200 mg/kg/day (lipid metabolism; [2]): < 15%
- change in vivo at 200 mg/kg/day (lipid metabolism; [3]): < 15%
- change in vivo at 200 mg/kg/day (lipid metabolism; [4]): < 15%
- change in vivo at 200 mg/kg/day (lipid metabolism; [5]): < 15%

SMILES: COP(=O)(OC)C(O)(c1ccc(Cl)cc1)P(=O)(OC)OC [Compound 4, Tetramethyl 1-(p-chlorophenyl)methane 1-hydroxy 1,1-diphosphonate]
- change in vivo at 200 mg/kg/day (lipid metabolism; [3]): -48%
- change in vivo at 200 mg/kg/day (lipid metabolism; [4]): 43%
- change in vivo at 200 mg/kg/day (lipid metabolism; [5]): -24%
- increased HDL lipids, especially HDL cholesterol (lipid metabolism): observed most dramatically
- decreases in serum triglycerides (lipid metabolism; rats): Significant decreases
- increase in serum phospholipid (lipid metabolism; rats): found to increase; also recorded: at least two fold the most active
- α-cholesterol/β-cholesterol ratio / lipoprotein cholesterol (lipid metabolism; rats): highly significant activity
- change in vivo at 200 mg/kg/day (tissue cholesterol; [6]): -56%
- change in vivo at 200 mg/kg/day (tissue cholesterol; [7]): -31%
- liver total lipids and/or liver cholesterol (tissue cholesterol): decreased significantly
- Aorta Chol. (% control values) (tissue cholesterol; [1]): NS (Except for serum calcium, values which differ from control values by less than 15% are considered as non significant (NS))
- Aorta Total Lipids (% control values) (tissue cholesterol; [1]): -47%
- Serum Chol. α/β (% control values) (tissue cholesterol; [1]): +220%
- Serum Free Fatty Acids (% control values) (tissue cholesterol; [1]): -67%
- Serum Phospholipids (% control values) (tissue cholesterol; [1]): +21%
- Serum Triglycerides (% control values) (tissue cholesterol; [1]): -21%

SMILES: COP(=O)(OC)C(O)(c1ccc(F)cc1)P(=O)(OC)OC [Compound 5]
- change in vivo at 200 mg/kg/day (lipid metabolism; [2]): 64%
- change in vivo at 200 mg/kg/day (lipid metabolism; [5]): 27%
- increased HDL lipids, especially HDL cholesterol (lipid metabolism): observed most dramatically
- α-cholesterol/β-cholesterol ratio / lipoprotein cholesterol (lipid metabolism; rats): highly significant activity

SMILES: COP(=O)(OC)C(O)(C(C)(C)Oc1ccc(Cl)cc1)P(=O)(OC)OC [Compound 7, Tetramethyl 2,2-dimethyl 2(p-chlorophenoxy) ethane 1-hydroxy 1,1-diphosphonate]
- change in vivo at 200 mg/kg/day (lipid metabolism; [3]): 28%
- change in vivo at 200 mg/kg/day (lipid metabolism; [4]): 26%
- change in vivo at 200 mg/kg/day (lipid metabolism; [5]): -33%
- decreases in serum triglycerides (lipid metabolism; rats): Significant decreases
- increase in serum phospholipid (lipid metabolism; rats): found to increase
- change in vivo at 200 mg/kg/day (tissue cholesterol; [6]): -25%
- change in vivo at 200 mg/kg/day (tissue cholesterol; [7]): < 15%
- liver total lipids and/or liver cholesterol (tissue cholesterol): decreased significantly
- Aorta Chol. (% control values) (tissue cholesterol; [1]): -19%
- Aorta Total Lipids (% control values) (tissue cholesterol; [1]): -27%
- Serum Chol. α/β (% control values) (tissue cholesterol; [1]): +27%
- Serum Free Fatty Acids (% control values) (tissue cholesterol; [1]): -40%
- Serum Phospholipids (% control values) (tissue cholesterol; [1]): NS (Except for serum calcium, values which differ from control values by less than 15% are considered as non significant (NS))
- Serum Triglycerides (% control values) (tissue cholesterol; [1]): NS (Except for serum calcium, values which differ from control values by less than 15% are considered as non significant (NS))

SMILES: COP(=O)(OC)OC(C1CCCCC1)P(=O)(OC)OC (stereo not shown) [Compound 12]
- Serum Chol. α/β (% control values) (lipid metabolism): NS (Except for serum calcium, values which differ from control values by less than 15% are considered as non significant (NS))
- Serum Phospholipids (% control values) (lipid metabolism): NS (Except for serum calcium, values which differ from control values by less than 15% are considered as non significant (NS))
- Serum Triglycerides (% control values) (lipid metabolism): -46%
- decreases in serum triglycerides (lipid metabolism; rats): Significant decreases

SMILES: COP(=O)(OC)OC(c1ccccc1Cl)P(=O)(OC)OC (stereo not shown) [Compound 14]
- change in vivo at 200 mg/kg/day (lipid metabolism; [2]): 34%
- change in vivo at 200 mg/kg/day (lipid metabolism; [4]): 22%
- change in vivo at 200 mg/kg/day (lipid metabolism; [5]): -42%

SMILES: COP(=O)(OC)OC(c1cccc(Cl)c1)P(=O)(OC)OC (stereo not shown) [Compound 15]
- change in vivo at 200 mg/kg/day (lipid metabolism; [2]): 69%
- change in vivo at 200 mg/kg/day (lipid metabolism; [4]): < 15%
- change in vivo at 200 mg/kg/day (lipid metabolism; [5]): -37%
- increased HDL lipids, especially HDL cholesterol (lipid metabolism): observed most dramatically
- α-cholesterol/β-cholesterol ratio / lipoprotein cholesterol (lipid metabolism; rats): highly significant activity

SMILES: COP(=O)(OC)OC(c1ccc(F)cc1)P(=O)(OC)OC (stereo not shown) [Compound 17]
- change in vivo at 200 mg/kg/day (lipid metabolism; [2]): 81%
- change in vivo at 200 mg/kg/day (lipid metabolism; [4]): < 15%
- change in vivo at 200 mg/kg/day (lipid metabolism; [5]): < 15%
- increased HDL lipids, especially HDL cholesterol (lipid metabolism): observed most dramatically
- α-cholesterol/β-cholesterol ratio / lipoprotein cholesterol (lipid metabolism; rats): highly significant activity

SMILES: COP(=O)(OC)OC(c1cc(C)ccc1C)P(=O)(OC)OC (stereo not drawn) [Compound 19, Dimethyl α-(dimethoxyphosphinyl)2,5-dimethylbenzyl phosphate]
- change in vivo at 200 mg/kg/day (lipid metabolism; [2]): 15%
- change in vivo at 200 mg/kg/day (lipid metabolism; [4]): < 15%
- change in vivo at 200 mg/kg/day (lipid metabolism; [5]): < 15%
- decreases in serum triglycerides (lipid metabolism; rats): Significant decreases

SMILES: COP(=O)(OC)OC(C(C)(C)c1ccccc1)P(=O)(OC)OC (stereo not shown) [Compound 20]
- change in vivo at 200 mg/kg/day (lipid metabolism; [2]): 25%
- change in vivo at 200 mg/kg/day (lipid metabolism; [4]): 15%
- change in vivo at 200 mg/kg/day (lipid metabolism; [5]): 36%
- increase in serum phospholipid (lipid metabolism; rats): found to increase

SMILES: COP(=O)(OC)OC(C(C)(C)Cc1ccc(Cl)cc1)P(=O)(OC)OC (stereo not shown) [Compound 22]
- change in vivo at 200 mg/kg/day (lipid metabolism; [2]): -38%
- change in vivo at 200 mg/kg/day (lipid metabolism; [4]): < 15%
- change in vivo at 200 mg/kg/day (lipid metabolism; [5]): -19%

SMILES: COP(=O)(OC)OC(c1ccc(C(=O)c2ccc(Cl)cc2)cc1)P(=O)(OC)OC (stereo not drawn) [Compound 23, Dimethyl [α-(dimethoxyphosphinyl) 4-(4'-chlorobenzoyl)]benzyl phosphate]
- change in vivo at 200 mg/kg/day (lipid metabolism; [2]): 55%
- change in vivo at 200 mg/kg/day (lipid metabolism; [4]): 53%
- change in vivo at 200 mg/kg/day (lipid metabolism; [5]): < 15%
- increased HDL lipids, especially HDL cholesterol (lipid metabolism): observed most dramatically
- increase in serum phospholipid (lipid metabolism; rats): found to increase; also recorded: at least two fold the most active
- α-cholesterol/β-cholesterol ratio / lipoprotein cholesterol (lipid metabolism; rats): highly significant activity

SMILES: CCCCOP(=O)(OCCCC)OC(c1ccc(Cl)cc1)P(=O)(OCCCC)OCCCC (stereo not shown) [Compound 25]
- Serum Chol. α/β (% control values) (lipid metabolism): NS (Except for serum calcium, values which differ from control values by less than 15% are considered as non significant (NS))
- Serum Phospholipids (% control values) (lipid metabolism): NS (Except for serum calcium, values which differ from control values by less than 15% are considered as non significant (NS))
- Serum Triglycerides (% control values) (lipid metabolism): NS (Except for serum calcium, values which differ from control values by less than 15% are considered as non significant (NS))

SMILES: CCOP(=O)(OCC)C(CCCc1ccccc1)P(=O)(OCC)OCC [Compound 29, Tetraethyl 4-phenylbutylidene 1,1-diphosphonate]
- change in vivo at 200 mg/kg/day (lipid metabolism; [2]): 33%
- change in vivo at 200 mg/kg/day (lipid metabolism; [4]): 17%
- change in vivo at 200 mg/kg/day (lipid metabolism; [5]): 46%
- increase in serum phospholipid (lipid metabolism; rats): found to increase

SMILES: COP(=O)(OC)C(CCCc1ccccc1)P(=O)(OC)OC [Compound 37, Tetramethyl 4-phenylbutylidene 1,1-diphosphonate]
- change in vivo at 200 mg/kg/day (lipid metabolism; [2]): 49%
- change in vivo at 200 mg/kg/day (lipid metabolism; [4]): 33%
- change in vivo at 200 mg/kg/day (lipid metabolism; [5]): 42%
- increased HDL lipids, especially HDL cholesterol (lipid metabolism): observed most dramatically
- increase in serum phospholipid (lipid metabolism; rats): found to increase
- α-cholesterol/β-cholesterol ratio / lipoprotein cholesterol (lipid metabolism; rats): highly significant activity

From US4416877A, “Anti-atherosclerotic pharmaceutical compositions containing diphosphonate compounds” (priority 1979, dated 1983)
